How the values were obtained:
[1] = tested on: auditory nerve compound action potential (CAP); assay: Auditory nerve CAP after systemic (intraperitoneal) delivery; assay type: in vivo, guinea pig; details: for effect on CAP thresholds: 1 to 22 kHz; for CAP amplitude reduction, on average: after ~1 h, 8 kHz tone bursts at 90 dB SPL
Procedure: This study utilized 21 NIH-strain, pigmented guinea pigs weighing from 400 to 650 g, in accordance with policies and protocols approved by the Institutional Animal Care and Use Committee at Washington University in St. Louis (20180133, 20190035). Animals were anesthetized with intraperitoneal (IP) injection of 100 mg/kg sodium thiobutabarbital (Inactin, Sigma, St. Louis, MO). Once anesthetized, the fur from the head and neck was shaved and a tracheal cannula was placed. The animal was maintained on 0.8–1.2% isoflurane in oxygen using a mechanical ventilator. The ventilator's tidal volume was adjusted to maintain a 5% end-tidal CO2 which was monitored with a CapnoTrue AMP (Bluepoint Medical, Zevenaar, The Netherlands). Body temperature was maintained at 38 degrees C with a DC-powered heating blanket-rectal thermometer (Model 50-7079; Harvard Apparatus). Heart rate and oxygen saturation were monitored with a pulse oximeter (Surgivet, Waukesha, WI). The auditory bulla was exposed ventrally for placement of recording electrodes. The jugular vein was cannulated to maintain hydration with 0.5 mL per hour of Lactated Ringer's solution. To prevent middle ear muscle contractions, vecuronium bromide (0.2 mg/kg) was administered immediately prior to data collection and every 1.5 h thereafter.
As described for local delivery, cochlear output was measured similarly for systemic delivery of IEM-1460 and IEM-1925. Complete details have been previously published (Salt et al., [2013]). Briefly, acoustic tone bursts were applied in a closed sound system. The plastic extension tube of the acoustic assembly (Etymotic Research, ER-10 C) was coupled to the end of the hollow ear bar with the tube tip positioned ~1.5 mm from the tympanic membrane. Stimulus generation and data collection were performed with Tucker Davis System 3 hardware controlled by a custom written program (Microsoft Visual Basic). Stimulus waveforms were routed through a programmable Tucker Davis PA5 attenuator and HB7 headphone amplifier. Stimuli were calibrated from 0.125 to 26 kHz in 1/4 octave steps. A CAP audiogram was obtained at the beginning and end of the experiment. Up to 60 min of baseline audiometric data were obtained prior to drug delivery. Data with baseline changes >20% were excluded. A 13-level tone probe series, at selected frequencies, was repeated at 2-min intervals. Distortion product otoacoustic emissions (DPOAEs) were measured using an ER10C probe system. The two primary tone frequencies were set at 6 kHz (f1) and 7.4 kHz (f2), for a f2/f1-ratio of 1.23, with levels of 65 dB SPL (L1) and 55 dB SPL (L2).
At each probe frequency, CAP peak-to-peak amplitudes were measured from the first trough (N1) to the first peak (P1). Latencies were measured to the trough of N1. Cochlear output was compared before and after intraperitoneal drug delivery. The data were tested for normality using a Kolmogorov-Smirnov test. For CAP amplitude and latency, significance was assessed with the Mann-Whitney U-test. The Wilcoxon signed rank test was used to assess CAP threshold. Friedman test was used to compare concentrations of drug between perilymph and CSF. A p < 0.05 was considered statistically significant. A Bonferroni correction was used when performing multiple comparison testing. All statistical tests were performed with IBM SPSS Statistics Version 27 (SPSS Inc., Chicago, IL, United States).
After at least 30 min of baseline data, 1 mL of Lactated Ringer's was injected into the peritoneal space of the guinea pig as a vehicle control. Then, 13.5 mg/kg IEM-1460 or 8 mg/kg IEM-1925 in Lactated Ringer's was injected into the peritoneal space of the guinea pig. The entire experiment took ~3 h to complete: 1 h for anesthetic induction and surgery, 30 min for sound calibration and CAP threshold measurements, and 2 h for drug delivery, DPOAE and CAP measurements. After collection of perilymph and CSF, the animal was euthanized via saturated KCl delivered directly into the jugular vein. […]

[2] = In vitro microsomal stability assay, guinea pig; assay type: in vitro ADME; details: pH 7.4; guinea pig liver microsomes, 1 μM compound, 37°C; read-out: Half-life (min) Mean (N = 2)
Procedure: The stability of IEM-1460 in the presence of guinea pig liver microsomes (BioIVT, PN: X008070) or IEM-1925 in the presence of human (BioIVT, PN: M00101), mouse, or guinea pig liver microsomes was evaluated (Paraza Pharma, Inc., Montreal, Quebec, Canada). Both IEM-1925 and IEM-1460 were incubated with microsomes at 37°C for a total of 45 min. Working solutions were prepared in 100 mM potassium phosphate buffer and the final reaction was performed at pH 7.4 in 100 mM potassium phosphate buffer containing 0.5 mg/mL liver microsomal protein. Phase I metabolism was assessed by adding NADPH to a final concentration of 1 mM and collecting samples at time points 0, 5, 15, 30, and 45 min. All collected samples were quenched 1:1 with ice-cold stop solution (1 μM labetalol and 1 μM glyburide in acetonitrile) and centrifuged to remove precipitated protein. […] Samples were analyzed by LC-MS/MS using a Thermo Vanquish UPLC and a Thermo Quantis triple quadrupole mass spectrometer. […] Reference compounds were also assessed to ensure accuracy and precision of experimental protocol: imipramine and verapamil for human liver microsomes, diphenhydramine and verapamil for mouse liver microsomes, and warfarin and verapamil for guinea pig liver microsomes. […] Half-life was determined from a plot of the natural logarithm of the peak area ratio (remaining compound peak area/internal standard peak area) against time. […]

[3] = tested on: pyramidal cells (expressing mainly GluA2-containing CI-AMPARs); parameters: method as in Tikhonov et al., 2000; details: rat hippocampus ref Tikhonov et al., 2000; cited from earlier work
[4] = IP injection: IEM-1460 13.5 mg/kg, IEM-1925 8 mg/kg
[5] = IP injection: IEM-1460 13.5 mg/kg, IEM-1925 8 mg/kg, N = 4

| SMILES | effect on CAP latency ([1]; IP 13.5 mg/kg, all tone levels, N = 4) | mean difference between pre- and post-injection CAP amplitudes ([1]; IP 13.5 mg/kg, exemplary recording, across tone levels) | relative reduction of CAP amplitude ([1]; IP 13.5 mg/kg, exemplary recording, probes of 40–90 dB SPL) | delay from IP injection to start of CAP reduction [1, 4] [min] | effect on CAP thresholds [1, 5] | CAP amplitude reduction, on average [1, 5] | half-life at 1 μM [2] [min] | IC50 [3] [µM] | CAP reduction from baseline [1, 4] [%] |
| --- | --- | --- | --- | --- | --- | --- | --- | --- | --- |
| C[N+](C)(C)CCCCCNCC12CC3CC(CC(C3)C1)C2 [IEM-1460] | no statistically significant difference | 19.1–269 μV | ~ 50% | 20 to 50 | not statistically different | ~ 20% | > 300 | > 500 |  |
| NCCCCCNC1(c2ccccc2)CCCCC1 [IEM-1925] |  |  |  |  | minimal effect | ~ 20% | > 300 | > 200 | > 50 |

From PMC8287724, “Reducing Auditory Nerve Excitability by Acute Antagonism of Ca^2+-Permeable AMPA Receptors” (Frontiers in Synaptic Neuroscience, 2021)
